Patent US9085559B2, “Triazine-aryl-bis-indoles and process for preparation thereof” (COUNCIL OF SCIENTIFIC & INDUSTRIAL RESEARCH, priority 2010, dated 2015)
≈ marks a conversion by molar mass, not a printed value. Where “and” joins values, the source holds several entries; their conditions need not be identical. Identical values can stand only once. Like-named read-outs stand apart in the source and are kept apart here.

How the values were obtained:
[1] = tested on: Intercellular Adhesion Molecule type 1 (ICAM-1); experiment: Cell-ELISA, TNF-α induced ICAM-1 expression on HUVECs; assay type: cell-based; details: Homo sapiens, HUVEC; HUVECs pretreated 2 hours, TNF-α 16 hours
Procedure: (§1) FIG. 4. Inhibition of TNF-α induced expression Intercellular Adhesion Molecule type 1 (ICAM-1) and Vascular Cell Adhesion Molecule type 1 (VCAM-1) on HUVECs by IICT-TA67. To determine the effect of IICT-TA67 on TNF-α induced cell adhesion molecules such as ICAM-1 and VCAM-1, HUVECs were pretreated with various concentrations of IICT-TA67 for 2 hours followed by induction with TNF-α for 16 hours. The cell surface expression of cell adhesion molecules was measured by ELISA.
(§2) Cell-ELISA was used for measuring the expression of ICAM-1 on surface of endothelial cells. Endothelial cells were incubated with or without IICT-TA67 at desired concentrations for the required period, followed by treatment with TNF-α (10 ng/ml) for 16 h for ICAM-1 and VCAM-1 expression. The cells were fixed with 1.0% glutaraldehyde. Non-specific binding of antibody was blocked by using skimmed milk (3.0% in PBS). Cells were incubated overnight at 4° C. with anti-ICAM-1 mAb anti-VCAM-1 antibody, diluted in blocking buffer, the cells were further washed with PBS and incubated with peroxidase-conjugated goat anti-mouse secondary Abs. […] Reaction was stopped by the addition of 2 N sulfuric acid and absorbance at 490 nm was measured using microplate reader (Spectramax 190, Molecular Devices, USA).

[2] = tested on: Vascular Cell Adhesion Molecule type 1 (VCAM-1); experiment: Cell-ELISA, TNF-α induced VCAM-1 expression on HUVECs; assay type: cell-based; details: Homo sapiens, HUVEC; HUVECs pretreated 2 hours, TNF-α 16 hours
Procedure: as §1, §2

[3] = Pharmacokinetic study, oral and i.v. route; assay type: in vivo, swiss mice; details: mice; for half-life: read-out: T ½ (converted)
Procedure: FIG. 6. Pharmacokinetics of IICT-TA67 through oral route. FIG. 7. Pharmacokinetics of IICT-TA67 through intravenous (i.v) route in mice. IICT-TA67 (20 mg/kg) was administered orally (or 10 mg/kg by i.v. route) as a fine suspension in 1% Gum acacia. Blood samples were drawn from retro-orbital plexus at designated times in pre-labeled heparinised tubes and centrifuged (3500 rpm×10 minutes) to obtain the plasma. Blood samples were collected at 0, 5, 15 and 30 min, and 1, 2, 4, 6, 8, 16 and 24 hrs post-administration after oral/iv route. HPLC determinations were done on Shimadzu chromatograph (Model: LC-10 Atvp equipped with a diode array detector). The Molecule ICT-TA67 was determined at 276 nm using RP-18 column (5 μm×25 cm). Mobile phase consisted of acetonitrile: water (55:45) with a flow rate of 1.0 ml/min.
Animals. Healthy swiss mice of both the sexes (25-30) were used. The animals were kept (3/cage) under controlled conditions (temp 26±2° C.; relative humidity 50±5%; 12 h light/dark cycle) and maintained on pelleted rodent diet (Ashirwad Industries Ltd. Chandigarh, India). Water was provided ad libitum. Institutional Animal Ethics committee approved the animal experiments. Animals were fasted for 16 hours before use.
Step 1: Dosing: IICT-TA67 (20 mg/kg) was administered orally (or 10 mg/kg by i.v.route) as a fine suspension in 1% Gum acacia. Blood samples were drawn from retro-orbital plexus at designated times in pre-labeled heparinised tubes and centrifuged (3500 rpm×10 minutes) to obtain the plasma. Blood samples were collected at 0, 5, 15 and 30 min, and 1, 2, 4, 6, 8, 16 and 24 hrs post-administration after oral/iv route.
Step 2: HPLC determinations: Aliquots of plasma were mixed with acetonitrile (1:2), vortexed for two minutes (2500 rpm) and centrifuge at 5000 rpm for 10 min. The organic layer was collected and evaporated to dryness using solvent evaporator (Model: SPD 111V, Thermo Electron Corporation, MA). The dried samples were reconstituted in mobile phase for HPLC analysis. In a similar manner samples were also prepared from aliquots of plasma collected from untreated animals which were spiked with molecule 67 (0.25 μg-10 μg/ml). […] Reproducibility of the method was defined by both intra-, and inter-day variance. The retention time of Mol. 67 was 10.688 min, at which no other interfering peak was observed. The lower limit of detection (LOD) was 11 ng/ml; limit of quantitation (LOQ) was 32 ng/ml; recovery was 90±2%.
HPLC determinations were done on Shimadzu chromatograph (Model: LC-10 Atvp equipped with a diode array detector). Molecule 67 was determined at 276 nm using RP-18 column (5 μm×25 cm). Mobile phase consisted of acetonitrile: water (55:45) with a flow rate of 1.0 ml/min.
Step 3: Calculating Bioavailability indices: A concentration-time curve for Molecule 67 was established and pharmacokinetic parameters AUC, Cmax, and tmax were determined by a non-compartmental analysis using TOPFIT software package. Absolute bioavailability was determined using the following formula: AUCoral×doseiv/AUCiv×Doseoral.

PDE-4 = experiment: Phosphodiesterase 4 assay ([3H]cAMP SPA), enzyme preparation from rat heart; assay type: biochemical; details: 0.1-20 μg/ml, compared with rolipram (FIG. 2)
[4] = both sexes, Swiss, mouse, plasma, iv, 10 mg/kg
[5] = both sexes, Swiss, mouse, plasma, oral, 20 mg/kg

Compound: COc1ccc(C(c2[nH]c3ccccc3c2CC(=O)O)c2[nH]c3ccccc3c2CC(=O)O)cc1Oc1nc(NC2CC2)nc(NC2CC2)n1 [Compound 7, 2,2′-[2,2′-3-(4,6-bis-cyclopropylamino)-1,3,5-triazin-2-yl-oxy-4-methoxy-phenyl]-methylene-bis-(1H-indole-3,3-diyl)-diacetic acid]
- IC50 [1]: 10.6 µg/mL (≈ 15.7 µM)
- IC50 [2]: 16.6 µg/mL (≈ 24.6 µM)
- Tmax [3, 4]: 0.167 h
- half-life ([3]; both sexes, Swiss, mouse, plasma, iv, 10 mg/kg, i.v., 10 mg/kg): 0.93 h
- AUC [3, 4]: 358 ng·h/mL
- Cmax [3, 4]: 332 ng/mL
- clearance [3, 4]: 466 mL/min and 466 mL/min/kg
- AUC(0-t) ([3]; both sexes, Swiss, mouse, plasma, iv, 10 mg/kg (Table 2)): 358 ng·h/mL
- Vd ([3]; both sexes, Swiss, mouse, plasma, iv, i.v., 10 mg/kg, read-out: Vd): 37.5 L and 37.5 L/kg
- bioavailability ([3]; both sexes, Swiss, mouse, plasma, oral, AUCoral×doseiv/AUCiv×Doseoral, read-out: Absolute bioavailability (F)): 70.3%
- Tmax ([3]; both sexes, Swiss, mouse, plasma, po, 20 mg/kg): 3 h
- Tmax ([3]; both sexes, Swiss, mouse, plasma, po, 20 mg/kg, 20 mg/kg (Table 2)): 2 h
- half-life ([3]; both sexes, Swiss, mouse, plasma, po, 20 mg/kg, oral, 20 mg/kg): 4.26 h
- AUC [3, 5]: 503 ng·h/mL
- Cmax [3, 5]: 107 ng/mL
- AUC(0-t) ([3]; both sexes, Swiss, mouse, plasma, oral, 20 mg/kg (Table 2)): 503 ng·h/mL
- T ½ ([3]; i.v., 10 mg/kg, listed as IICT-TA67, 10 mg/kg): 1.5 h
- Vd ([3]; oral, 20 mg/kg, listed as TA-67, 20 mg/kg): 474 L
- inhibition of PDE4 activity (PDE-4): inhibited PDE4 activity in a dose dependent manner
